The test system of the test is Swiss mice, Sarcoma 180 sc, mean tumor weight T/C. Put plainly: NCI In Vivo Anticancer Drug Screen. Data for tumor model Sarcoma 180 (subcutaneous) in Swiss mice. As to conditions: endpoint: mean tumor weight, higher = larger tumour. The gist of the method:
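Readout is the ratio of treated-group measurement to vehicle-control measurement (T/C), based on survival or tumor size in mice carrying transplanted tumors.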

Our source for the T/C values is PubChem BioAssay AID342 (DTP/NCI, 2004).

Each structure is given as a SMILES string. Several values for one entry are separate records, joined by “and”; a condition that tells them apart may be missing. Equal values may be shown once.

Take `CSCS(=O)C[C@H](CO)NC(=O)/C=C/c1c(C)[nH]c(=O)[nH]c1=O` (some centres undefined): the T/C (as a rule, the ratio of treated to control) (dose: 0.03 mg/kg/injection, schedule: Q#A X014 (ip), vehicle: saline) was 64 % of control; the T/C (dose: 0.06 mg/kg/injection, schedule: Q01DX007 (ip), vehicle: saline) is 81 % of control; the T/C (dose: 0.06 mg/kg/injection, schedule: Q01DX007 (sc), vehicle: saline) was 107 % of control; the T/C (dose: 0.06 mg/kg/injection, schedule: Q#A X014 (ip), vehicle: saline) was 54 % of control; the T/C (dose: 0.12 mg/kg/injection, schedule: Q#A X014 (ip), vehicle: saline) is 44 % of control; the T/C (dose: 0.13 mg/kg/injection, schedule: Q01DX007 (ip), vehicle: saline) is 50 % of control. Also, the T/C reads like this: (dose: 0.13 mg/kg/injection, schedule: Q01DX007 (sc), vehicle: saline) 81 % of control; (dose: 0.19 mg/kg/injection, schedule: Q03DX003 (ip), vehicle: saline) 88 % of control; (dose: 0.25 mg/kg/injection, schedule: Q01DX007 (ip), vehicle: saline) 39 % of control; (dose: 0.25 mg/kg/injection, schedule: Q01DX007 (iv), vehicle: saline) 87 % of control; (dose: 0.25 mg/kg/injection, schedule: Q01DX007 (oral), vehicle: saline) 97 % of control; (dose: 0.25 mg/kg/injection, schedule: Q01DX007 (sc), vehicle: saline) 78 % of control. Besides, the T/C was 42 % of control (dose: 0.25 mg/kg/injection, schedule: Q#A X014 (ip), vehicle: saline); 76 % of control (dose: 0.38 mg/kg/injection, schedule: Q03DX003 (ip), vehicle: saline); 58 % of control (dose: 0.4 mg/kg/injection, schedule: Q#A X014 (ip), vehicle: carboxymethylcellulose (CMC)); 32 % of control (dose: 0.5 mg/kg/injection, schedule: Q01DX007 (ip), vehicle: saline); 86 % of control (dose: 0.5 mg/kg/injection, schedule: Q01DX007 (iv), vehicle: saline); 106 % of control (dose: 0.5 mg/kg/injection, schedule: Q01DX007 (oral), vehicle: saline). Besides, the T/C is 17 % of control (dose: 0.5 mg/kg/injection, schedule: Q01DX007 (sc), vehicle: saline); 27 % of control (dose: 0.62 mg/kg/injection, schedule: Q#A X014 (ip), vehicle: carboxymethylcellulose (CMC)); 20 % of control (dose: 0.75 mg/kg/injection, schedule: Q#A X014 (ip), vehicle: carboxymethylcellulose (CMC)); 58 % of control (dose: 1.0 mg/kg/injection, schedule: Q01DX007 (iv), vehicle: saline); 59 % of control (dose: 1.0 mg/kg/injection, schedule: Q01DX007 (oral), vehicle: saline); 89 % of control (dose: 1.5 mg/kg/injection, schedule: Q03DX003 (ip), vehicle: saline). Also, the T/C reads like this: (dose: 2.0 mg/kg/injection, schedule: Q01DX007 (oral), vehicle: saline) 99 % of control; (dose: 62.5 mg/kg/injection, schedule: Q#A X014 (ip), vehicle: carboxymethylcellulose (CMC)) 79 % of control; (dose: 125.0 mg/kg/injection, schedule: Q#A X014 (ip), vehicle: carboxymethylcellulose (CMC)) 74 % of control.
For `CC1CN(C(=O)CCl)c2ccccc2N1C(=O)CCl` (centres undefined), the T/C by setting is: (dose: 2.0 mg/kg/injection, schedule: Q01DX007 (ip), vehicle: carboxymethylcellulose (CMC)) 121 % of control; (dose: 4.0 mg/kg/injection, schedule: Q01DX007 (ip), vehicle: carboxymethylcellulose (CMC)) 114 % of control.
`C/C=C1/CN(C)C2Cc3c([nH]c4ccccc34)C(c3cc4[nH]c5c(c4cc3OC)CCN3CC4CC(C(C)O)C3C5(C(=O)OC)C4)CC1C2C(=O)OC` (centres undefined): the T/C reads like this: (dose: 10.0 mg/kg/injection, schedule: Q01DX007 (ip), vehicle: water) 54 % of control; (dose: 20.0 mg/kg/injection, schedule: Q01DX007 (ip), vehicle: water) 97 % of control; (dose: 30.0 mg/kg/injection, schedule: Q01DX007 (ip), vehicle: water) 87 % of control; (dose: 40.0 mg/kg/injection, schedule: Q01DX007 (ip), vehicle: water) 80 % of control.
In the case of `O=c1[nH]cc(C(F)(F)F)c(=O)[nH]1`, the T/C by setting is: (dose: 200.0 mg/kg/injection, schedule: Q01DX007 (ip), vehicle: saline) 63 % of control; (dose: 300.0 mg/kg/injection, schedule: Q01DX007 (ip), vehicle: saline) 73 % of control.
In the case of `CC(=O)C1=C(O)C2(O)C(=O)c3c(c(C)c4ccc(C)c(O)c4c3O)CC2C(N)C1=O` (centres undefined), the T/C is, setting by setting: (dose: 18.8 mg/kg/injection, schedule: Q01DX007 (ip), vehicle: saline) 114 % of control; (dose: 37.5 mg/kg/injection, schedule: Q01DX007 (ip), vehicle: saline) 112 % of control; (dose: 75.0 mg/kg/injection, schedule: Q01DX007 (ip), vehicle: saline) 81 % of control; (dose: 150.0 mg/kg/injection, schedule: Q01DX007 (ip), vehicle: saline) 104 % of control.
Consider `O=C(O)c1ccc(-c2ccccc2)cc1`, for which the T/C is 95 % of control (dose: 50.0 mg/kg/injection, schedule: Q01DX007 (ip), vehicle: carboxymethylcellulose (CMC)); 118 % of control (dose: 100.0 mg/kg/injection, schedule: Q01DX007 (ip), vehicle: carboxymethylcellulose (CMC)); 120 % of control (dose: 200.0 mg/kg/injection, schedule: Q01DX007 (ip), vehicle: carboxymethylcellulose (CMC)).
With `C/C=C(/C)C(=O)O[C@H]1CCN2CC=C(COC(=O)[C@@](O)([C@H](C)OC)C(C)(C)O)[C@H]12`, the T/C by setting is: (dose: 12.0 mg/kg/injection, schedule: Q01DX007 (ip), vehicle: carboxymethylcellulose (CMC)) 117 % of control; (dose: 18.0 mg/kg/injection, schedule: Q01DX007 (ip), vehicle: carboxymethylcellulose (CMC)) 73 % of control; (dose: 26.6 mg/kg/injection, schedule: Q01DX007 (ip), vehicle: carboxymethylcellulose (CMC)) 48 % of control; (dose: 40.0 mg/kg/injection, schedule: Q01DX007 (ip), vehicle: carboxymethylcellulose (CMC)) 40 % of control.
Turning to `Nc1ncnc2c1ncn2C1OC(CO)CC1O` (centres undefined), the T/C by setting is: (dose: 37.0 mg/kg/injection, schedule: Q01DX007 (ip), vehicle: carboxymethylcellulose (CMC)) 104 % of control; (dose: 75.0 mg/kg/injection, schedule: Q01DX007 (ip), vehicle: carboxymethylcellulose (CMC)) 122 % of control; (dose: 150.0 mg/kg/injection, schedule: Q01DX007 (ip), vehicle: carboxymethylcellulose (CMC)) 80 % of control; (dose: 300.0 mg/kg/injection, schedule: Q01DX007 (ip), vehicle: carboxymethylcellulose (CMC)) 53 % of control.
On to `Oc1ccccc1C(Nc1nc2ccccc2s1)c1ccc2cccnc2c1O` (centres undefined), for which the T/C (dose: 62.0 mg/kg/injection, schedule: Q01DX007 (ip), vehicle: other) was 94 % of control; the T/C (dose: 125.0 mg/kg/injection, schedule: Q01DX007 (ip), vehicle: other) is 97 % of control; the T/C (dose: 250.0 mg/kg/injection, schedule: Q01DX007 (ip), vehicle: other) was 46 % of control.
As to `Clc1ccc2c(c1)C(Br)c1cc(Cl)cc(Cl)c1-2` (centres undefined), the T/C was 66 % of control (dose: 222.0 mg/kg/injection, schedule: Q01DX007 (ip), vehicle: other); 67 % of control (dose: 222.0 mg/kg/injection, schedule: Q01DX007 (ip), vehicle: saline); 27 % of control (dose: 333.0 mg/kg/injection, schedule: Q01DX007 (ip), vehicle: other); 32 % of control (dose: 333.0 mg/kg/injection, schedule: Q01DX007 (ip), vehicle: saline); 30 % of control (dose: 500.0 mg/kg/injection, schedule: Q01DX007 (ip), vehicle: other); 21 % of control (dose: 750.0 mg/kg/injection, schedule: Q01DX007 (ip), vehicle: other).
Consider `O=C(CBr)c1ccc(Br)cc1`, for which the T/C is 63 % of control (dose: 7.5 mg/kg/injection, schedule: Q01DX007 (ip), vehicle: other); 49 % of control and 73 % of control (dose: 15.0 mg/kg/injection, schedule: Q01DX007 (ip), vehicle: other); 42 % of control (dose: 20.0 mg/kg/injection, schedule: Q01DX007 (ip), vehicle: other).
For `O=C(CCBr)N1CCCN(C(=O)CCBr)CC1`, the T/C is 49 % of control (dose: 147.0 mg/kg/injection, schedule: Q01DX007 (ip), vehicle: carboxymethylcellulose (CMC)) and 46 % of control (dose: 223.0 mg/kg/injection, schedule: Q01DX007 (ip), vehicle: carboxymethylcellulose (CMC)).
